Converted amounts (≈) assume the structure as drawn.
Legend:
[1] = tested on: Escherichia coli; test: Antimicrobial activity against Escherichia coli ATCC 25922 after 24 hrs by two fold dilution method; format: functional; settings: ATCC 25922, 24 h
[2] = tested on: Candida albicans; test: Antifungal activity against fluconazole-resistant Candida albicans CMAH 0520 after 48 to 72 hrs by broth microdilution method; format: functional
[3] = tested on: Staphylococcus aureus; test: Antibacterial activity against methicillin-resistant Staphylococcus aureus CMAH 0504 after 24 hrs by two fold dilution method; format: functional
[4] = Toxicity in human erythrocytes assessed as haemolysis upto 4000 ug/mL; format: cell-based, Erythrocyte; settings: read-out: Activity
[5] = Toxicity in human erythrocytes assessed as haemolysis upto 30 ug/mL; format: cell-based, Erythrocyte; settings: read-out: Activity
[6] = tested on: Candida albicans; test: Antifungal activity against Candida albicans CMAH 0501 after 48 to 72 hrs by broth microdilution method; format: functional
[7] = tested on: Aspergillus sp.; test: Antifungal activity against Aspergillus sp. after 48 to 72 hrs by broth microdilution method; format: functional
[8] = tested on: Micrococcus luteus; test: Antimicrobial activity against Micrococcus luteus CMCC(B) 28001 after 24 hrs by two fold dilution method; format: functional
[9] = tested on: Staphylococcus aureus; test: Antibacterial activity against methicillin-resistant Staphylococcus aureus CMAH 0430 after 24 hrs by two fold dilution method; format: functional
[10] = tested on: Candida albicans; test: Antifungal activity against Candida albicans CMAM 0592 after 48 to 72 hrs by broth microdilution method; format: functional
[11] = tested on: Pseudomonas aeruginosa; test: Antimicrobial activity against Pseudomonas aeruginosa ATCC 27853 after 24 hrs by two fold dilution method; format: functional; settings: ATCC 27853, 24 h
[12] = tested on: Candida albicans; test: Antifungal activity against Candida albicans ATCC 10231 after 48 to 72 hrs by broth microdilution method; format: functional
[13] = tested on: Candida albicans; test: Antifungal activity against Candida albicans CMAH 0503 after 48 to 72 hrs by broth microdilution method; format: functional
[14] = tested on: Candida albicans; test: Antifungal activity against fluconazole-resistant Candida albicans CMAM 0597 after 48 to 72 hrs by broth microdilution method; format: functional
[15] = tested on: Staphylococcus aureus; test: Antibacterial activity against methicillin-susceptible Staphylococcus aureus ATCC 25923 after 24 hrs by two fold dilution method; format: functional; settings: ATCC 25923, 24 h
[16] = tested on: Candida albicans; test: Antifungal activity against Candida albicans CMAM 0594 after 48 to 72 hrs by broth microdilution method; format: functional
[17] = tested on: Candida albicans; test: Antifungal activity against Candida albicans CMAH 0511 after 48 to 72 hrs by broth microdilution method; format: functional
[18] = Toxicity in human erythrocytes assessed as haemolysis upto 500 ug/mL; format: cell-based, Erythrocyte; settings: read-out: Activity
[19] = tested on: Proteus vulgaris; test: Antimicrobial activity against Proteus vulgaris CMCC(B) 49001 after 24 hrs by two fold dilution method; format: functional
[20] = tested on: Rhodotorula glutinis; test: Antimicrobial activity against Rhodotorula glutinis SYM 2209 after 48 to 72 hrs by broth microdilution method; format: functional
[21] = tested on: Cryptococcus neoformans; test: Antifungal activity against Cryptococcus neoformans ATCC 90112 after 48 to 72 hrs by broth microdilution method; format: functional
[22] = tested on: Saccharomyces cerevisiae; test: Antimicrobial activity against Saccharomyces cerevisiae after 48 to 72 hrs by broth microdilution method; format: functional
[23] = tested on: Candida albicans; test: Antifungal activity against Candida albicans CMAH 0572 after 48 to 72 hrs by broth microdilution method; format: functional
[24] = tested on: Candida albicans; test: Antifungal activity against Candida albicans CMAH 0527 after 48 to 72 hrs by broth microdilution method; format: functional
[25] = tested on: Candida albicans; test: Antifungal activity against Candida albicans CMAM 0577 after 48 to 72 hrs by broth microdilution method; format: functional
[26] = tested on: Klebsiella aerogenes; test: Antibacterial activity against Enterobacter aerogenes CMCC(B) 45103 after 24 hrs by two fold dilution method; format: functional
[27] = tested on: Candida albicans; test: Antifungal activity against Candida albicans CMAH 0507 after 48 to 72 hrs by broth microdilution method; format: functional
[28] = tested on: Bacillus subtilis; test: Antimicrobial activity against Bacillus subtilis after 24 hrs by two fold dilution method; format: functional
[29] = tested on: Staphylococcus aureus; test: Antibacterial activity against methicillin-resistant Staphylococcus aureus CMAH 0515 after 24 hrs by two fold dilution method; format: functional

COC(=O)[C@H](Cc1c[nH]c2ccccc12)NC(=O)c1ccccn1
MIC [1]: 64 µg/mL (≈ 198 µM) | MFC [2]: 32 µg/mL (≈ 99 µM) | MIC [2]: 8 µg/mL (≈ 24.7 µM) | MBC [3]: 8 µg/mL (≈ 24.7 µM) | MIC [3]: 2 µg/mL (≈ 6.19 µM) | hemolysis [4]: 6% | hemolysis [5]: 50% | MFC [6]: 4 µg/mL (≈ 12.4 µM) | MIC [6]: 16 µg/mL (≈ 49.5 µM) | MFC50 [7]: 64 µg/mL (≈ 198 µM) | MFC90 [7]: >128 µg/mL | MIC ([7]; Aspergillus sp.): 33.6 µg/mL (≈ 104 µM) | MIC50 ([7]; Aspergillus sp.): 8 µg/mL (≈ 24.7 µM) | MIC90 ([7]; Aspergillus sp.): 64 µg/mL (≈ 198 µM) | MBC [8]: 8 µg/mL (≈ 24.7 µM) | MIC [8]: 4 µg/mL (≈ 12.4 µM) | MBC [9]: 4 µg/mL (≈ 12.4 µM) | MIC [9]: 1 µg/mL (≈ 3.09 µM) | MFC [10]: 16 µg/mL (≈ 49.5 µM) | MIC [10]: 4 µg/mL (≈ 12.4 µM) | MBC [11]: > 128 µg/mL | MIC [11]: 32 µg/mL (≈ 99 µM) | MFC [12]: 4 µg/mL (≈ 12.4 µM) | MIC [12]: 8 µg/mL (≈ 24.7 µM) | MFC [13]: 32 µg/mL (≈ 99 µM) | MIC [13]: 8 µg/mL (≈ 24.7 µM) | MFC [14]: 32 µg/mL (≈ 99 µM) | MIC [14]: 8 µg/mL (≈ 24.7 µM) | MBC [15]: 8 µg/mL (≈ 24.7 µM) | MIC [15]: 1 µg/mL (≈ 3.09 µM) | MFC [16]: 32 µg/mL (≈ 99 µM) | MIC [16]: 8 µg/mL (≈ 24.7 µM) | MFC [17]: 4 µg/mL (≈ 12.4 µM) | MIC [17]: 2 µg/mL (≈ 6.19 µM) | hemolysis [18]: 2.52% | MBC [19]: > 128 µg/mL | MIC [19]: 32 µg/mL (≈ 99 µM) | MFC [20]: 2 µg/mL (≈ 6.19 µM) | MIC [20]: 1 µg/mL (≈ 3.09 µM) | MFC [21]: 2 µg/mL (≈ 6.19 µM) | MIC [21]: 1 µg/mL (≈ 3.09 µM) | MFC [22]: 8 µg/mL (≈ 24.7 µM) | MIC [22]: 4 µg/mL (≈ 12.4 µM) | MFC [23]: 64 µg/mL (≈ 198 µM) | MIC [23]: 32 µg/mL (≈ 99 µM) | MFC [24]: 32 µg/mL (≈ 99 µM) | MIC [24]: 16 µg/mL (≈ 49.5 µM) | MFC [25]: 64 µg/mL (≈ 198 µM) | MIC [25]: 32 µg/mL (≈ 99 µM) | MIC [26]: 64 µg/mL (≈ 198 µM) | MFC [27]: 16 µg/mL (≈ 49.5 µM) | MIC [27]: 8 µg/mL (≈ 24.7 µM) | MBC [28]: 16 µg/mL (≈ 49.5 µM) | MIC [28]: 4 µg/mL (≈ 12.4 µM) | MBC [29]: 4 µg/mL (≈ 12.4 µM) | MIC [29]: 1 µg/mL (≈ 3.09 µM)

C[C@@H]1[C@H](O)[C@@H](C)/C=C/C=C/C=C/C=C/C=C/C=C/C=C/[C@H](O[C@@H]2O[C@H](C)[C@@H](O)[C@H](N)[C@@H]2O)C[C@@H]2O[C@](O)(C[C@@H](O)C[C@@H](O)[C@H](O)CC[C@@H](O)C[C@@H](O)CC(=O)O[C@H]1C)C[C@H](O)[C@H]2C(=O)O [AMPHOTERICIN B]
MFC [2]: 0.5 µg/mL (≈ 0.541 µM) | MIC [2]: 0.25 µg/mL (≈ 0.271 µM) | MFC [6]: 1 µg/mL (≈ 1.08 µM) | MIC [6]: 0.25 µg/mL (≈ 0.271 µM) | MFC50 [7]: 2 µg/mL (≈ 2.16 µM) | MFC90 [7]: 8 µg/mL (≈ 8.66 µM) | MFC ([7]; Aspergillus sp.): 2.96 µg/mL (≈ 3.2 µM) | MIC ([7]; Aspergillus sp.): 1.61 µg/mL (≈ 1.74 µM) | MIC50 ([7]; Aspergillus sp.): 1 µg/mL (≈ 1.08 µM) | MIC90 ([7]; Aspergillus sp.): 4 µg/mL (≈ 4.33 µM) | MFC [10]: 2 µg/mL (≈ 2.16 µM) | MIC [10]: 2 µg/mL (≈ 2.16 µM) | MFC [12]: 0.25 µg/mL (≈ 0.271 µM) | MIC [12]: 0.13 µg/mL (≈ 0.141 µM) | MFC [13]: 0.5 µg/mL (≈ 0.541 µM) | MIC [13]: 0.25 µg/mL (≈ 0.271 µM) | MFC [14]: 4 µg/mL (≈ 4.33 µM) | MIC [14]: 2 µg/mL (≈ 2.16 µM) | MFC [16]: 4 µg/mL (≈ 4.33 µM) | MIC [16]: 4 µg/mL (≈ 4.33 µM) | MFC [17]: 2 µg/mL (≈ 2.16 µM) | MIC [17]: 1 µg/mL (≈ 1.08 µM) | MFC [20]: > 64 µg/mL | MIC [20]: 16 µg/mL (≈ 17.3 µM) | MFC [21]: 1 µg/mL (≈ 1.08 µM) | MIC [21]: 0.25 µg/mL (≈ 0.271 µM) | MFC [22]: 0.5 µg/mL (≈ 0.541 µM) | MIC [22]: 0.25 µg/mL (≈ 0.271 µM) | MFC [23]: 4 µg/mL (≈ 4.33 µM) | MIC [23]: 1 µg/mL (≈ 1.08 µM) | MFC [24]: 1 µg/mL (≈ 1.08 µM) | MIC [24]: 0.5 µg/mL (≈ 0.541 µM) | MFC [25]: 4 µg/mL (≈ 4.33 µM) | MIC [25]: 1 µg/mL (≈ 1.08 µM) | MFC [27]: 0.5 µg/mL (≈ 0.541 µM) | MIC [27]: 0.5 µg/mL (≈ 0.541 µM)

Source: ChEMBL document CHEMBL1147026, “Synthesis of pseudopeptides based L-tryptophan as a potential antimicrobial agent” (Bioorg Med Chem Lett, 2007)
